Type in all cases: cell-based
In test [1] the test system is Kasumi-1 (c-Kit N822K mutant type). The test can be described thus: In vitro growth inhibition (GI50), Kasumi-1. Particulars: Homo sapiens, Cell lines of leukemia, read-out: GI 50 Kasumi-1 Kit (N822K). In outline: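 Cells in RPMI1640 with 10% FBS, seeded at 5–10×10^4 cells/mL, exposed next day to compound at 5,000 nM down to 0.01 nM (2- or 10-fold dilutions, ≤1% solvent) for 3–5 days at 37 °C. CCK8 absorbance at 450 nm, growth rate relative to pre-treatment and solvent controls, GI50 from concentration–growth curve.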

Test [2] concerns HCC827 (EGFR exon19 E746-A750 deletion). The test can be described thus: In vitro growth inhibition (GI50), HCC827. Particulars: Homo sapiens; HCC827, EGFR DelE746-A750. The text has this: (§1) Tumor cell line is an effective cell model for studying the inhibition of tumor cell growth or proliferation in vitro. In the present invention, a representative tumor cell line was selected to determine the cell growth inhibition activity of the present compound. All cell lines used were from ATCC, DSMZ, and the Cell Bank of the Chinese Academy of Sciences. Cell culture conditions and methods were in accordance with the requirements of each cell line. Cells were subcultured in vitro for no more than 3 passages each time, and as required, single-clone purification and identification of cell lines could be carried out.
(§2) The cell culture media used were RPMI1640 (Gibco), MEM (Gibco), McCOY'S5A (Gibco), and IMDM (Gibco). The complete medium was prepared by supplement with 5˜20% fetal calf serum (Gibco), 1% double-antibiotics (10000 units/mL penicillin and 10000 units/mL), 2 mM glutamine or 1 mM sodium pyruvate, respectively.
Human epidermal cancer cell line A431 (EGFR WT, amplification and high expression, from Shanghai Cell Bank of Chinese Academy of Sciences and ATCC), human lung cancer cell line NCI-H292 (EGFR WT, purchased from Shanghai Cell Bank of Chinese Academy of Sciences), NSCLC cell lines PC-9 and HCC827 (EGFR exon19 E746-A750 deletion, two cell lines are sensitive to the first-generation EGFR PTK inhibitor), NSCLC cell line NCI-H1975 (EGFR L858R/T790M and the first-generation EGFR inhibitor resistance, ATCC) were cultured with 1×RPMI1640 complete medium (supplement with 10% FBS), respectively.
(§3) Adherent cells were digested with 0.25% pancreatin-EDTA (Gibco). The suspension cells were collected by centrifugation. The supernatant was discarded and the cell pellet was resuspended and counted. Different cell concentrations (5˜10×10^4 cells/mL) were prepared according to the growth cycle of each cell line and then seeded on a 96-well plate (Corning), 100 μL/well. The cells were incubated overnight at 37° C., 5% CO2. The compounds were added to the cells on the second day with 2 wells in parallel. The final concentration of organic solvent shall not exceed 1%. The cells were continually incubated for 3 to 5 days, and then subjected to MTT assay.
(§4) The compound of the present invention and the control compound were dissolved in DMSO (Sigma) respectively, with the purity of more than 98%. The compound was stored in a concentration of 10 mM at −20° C. and diluted to 2- or 10-fold series prior to use.
(§5) Dojindo CCK8 reagent kit was used as MTT assay. THERMO […] FC meter was used as microplate reader.
(§6) For adherent cells, culture medium was removed and immediately replaced with the fresh prepared medium which contains 10% CCK8 reagent (100 μL/well). For the suspension cells, CCK8 was directly added to 10% of the final concentration. The cells were continually incubated for 1˜4 h. When a dark yellow color could be observed in the solvent control wells, the absorbance value at OD450 nm was measured and the cell growth rate was calculated according to the following formula: Cell Growth Rate (%)=100*(T−T0)/(C−T0) T=optical density of drug treatment cell well—optical density of blank control well; T0=optical density of cell well before drug treatment—optical density of blank control well; C=optical density of cell well of solvent control group—optical density of blank control well. The concentration value of 50% inhibition of cell growth (GI50) was calculated according to the drug concentration and cell growth rate curve. The experiment was independently repeated 1˜3 times, and subject to biological statistical analysis. 4. Experimental Results
Tumor cell growth inhibition test was performed by selecting representative compounds (compounds 4, 11, 12, 16, 27, 68, 71, 77, 79, 89 and 116 of the present invention). The initial concentration of the compound was 5,000 nM, then it was serially diluted by 2-fold or 10-fold to 0.01 nM. The GI50 value of each test compound was calculated according to the GI50 assay and calculation method. […]

For test [3], the system named is A549 (KRAS G12S mutant type). The test can be described thus: In vitro growth inhibition (GI50), A549. Conditions: Homo sapiens; A549, KRAS Gl2S.
From the text: as §1, §2
Human large cell lung cancer cell NCI-H460 (KRAS […] mutant type, ATCC), human non-small cell lung cancer cell line H1299 (NRAS Q61K mutant type, ATCC), human melanoma cell line A375 (BRAF V600E mutant type, Shanghai Cell Bank of Chinese Academy of Sciences), human colon cancer cell line HCT116 (KRAS G13D mutant type, Shanghai Cell Bank, Chinese Academy of Sciences) were cultured in a complete medium of 1×RPMI1640 (10% FBS), respectively. Human non-small cell lung cancer cells A549 (KRAS G12S mutant type, Shanghai Cell Bank, Chinese Academy of Sciences) were cultured in a complete medium of 1× Ham's supplemented with 10% FBS, 1% double antibody, and 2 mM glutamine.
as §3, §4, §5, §6
Tumor cell growth inhibition test was performed by selecting representative compounds (compounds 4, 11, 12, 16, 27, 68, 71, 77, 79, 89 and 116 of the present invention). The initial concentration of the compound was 5,000 nM, then it was serially diluted by 2-fold or 10-fold to 0.01 nM. […]

Turning to `CC(C)(C)c1cc(NC(=O)Nc2ccc(-n3cnc4cc(OCCN5CCOCC5)ccc43)cc2)[nH]n1` [Compound 89, 1-(5-tert-butyl-2H-pyrazol-3-yl)-3-{4-[5-(2-morpholin-4-yl-ethoxyl)-benzimidazol-1-yl]-phenyl}-urea], the GI50 was 100 to 1000 nM in test [1], above 2500 nM in test [2] and above 2500 nM in test [3].

Consider `CC(C)(C)c1cc(NC(=O)Nc2ccc(-n3cnc4cc(O)ccc43)cc2)no1` [Compound 4, 1-(5-tert-butyl-isoxazol-3-yl)-3-[4-(5-hydroxy-benzimidazol-1-yl)-phenyl]-urea], for which the GI50 in test [1] was 100 to 1000 nM; in test [2], above 2500 nM; in test [3], above 2500 nM.

`CC(C)(C)c1cc(NC(=O)Nc2ccc(-n3cnc4cc(OCCO)ccc43)cc2)no1` [Compound 11, 1-(5-tert-butyl-isoxazol-3-yl)-3-{4-[5-(2-hydroxy-ethoxyl)-benzimidazol-1-yl]-phenyl]-urea]: the figures for the GI50 in test [1], in test [2] and in test [3] were above 1000 nM, above 2500 nM and above 2500 nM, respectively.

Turning to `COCCOc1ccc2c(c1)ncn2-c1ccc(NC(=O)Nc2cc(C(C)(C)C)n[nH]2)cc1` [Compound 77, 1-(5-tert-butyl-2H-pyrazol-3-yl)-3-{4-[5-(2-methoxyl-ethoxyl)-benzimidazol-1-yl]-phenyl}-urea], the GI50 is above 1000 nM in test [1], above 2500 nM in test [2] and above 2500 nM in test [3].

Consider `CC(C)(C)c1cc(NC(=O)Nc2ccc(-n3cnc4ccccc43)cc2)[nH]n1` [Compound 68, 1-(4-benzimidazol-1-yl-phenyl)-3-(5-tert-butyl-2H-pyrazol-3-yl)-urea], for which the GI50 in test [1] is above 1000 nM; in test [2] it was above 2500 nM; in test [3], above 2500 nM.

`CC(C)(C)c1cc(N)n(C(=O)Nc2ccc(-n3cnc4ccccc43)cc2)n1` [Compound 116, 5-amino-3-tert-butyl-pyrazol-1-carboxylic acid (4-benzimidazol-1-yl-phenyl)-amide]: the GI50 is above 1000 nM in test [1], above 2500 nM in test [2] and above 2500 nM in test [3].

In the case of `CC(C)(C)c1cc(NC(=O)Nc2ccc(-n3cnc4cc(OCCN5CCOCC5)ccc43)cc2)no1` [Compound 16, 1-(5-tert-butyl-isoxazol-3-yl)-3-{4-[5-(2-morpholin-4-yl-ethoxyl)-benzimidazol-1-yl]-phenyl}-urea], the results for the GI50 in test [1], in test [2] and in test [3] were above 1000 nM, above 2500 nM and above 2500 nM, respectively.

As to `COc1ccc2c(c1)ncn2-c1ccc(NC(=O)Nc2cc(C(C)(C)C)n[nH]2)cc1` [Compound 71, 1-(5-tert-butyl-2H-pyrazol-3-yl)-3-[4-(5-methoxyl-benzimidazol-1-yl)-phenyl]-urea], the GI50 was above 1000 nM in test [1], above 2500 nM in test [2] and above 2500 nM in test [3].

In the case of `CC(C)(C)c1cc(NC(=O)Nc2ccc(-n3cnc4cc(OCCO)ccc43)cc2)[nH]n1` [Compound 79, 1-(5-tert-butyl-2H-pyrazol-3-yl)-3-{4-[5-(2-hydroxy-ethoxyl)-benzimidazol-1-yl]-phenyl]urea], the GI50 in test [1] was above 1000 nM; in test [2], above 2500 nM; in test [3], above 2500 nM.

As to `CC(C)(C)c1cc(NC(=O)Nc2ccc(-n3cnc4ccc(OCCN5CCOCC5)cc43)cc2)no1` [Compound 27, 1-(5-tert-butyl-isoxazol-3-yl)-3-{4-[6-(2morpholin-4-yl-ethoxyl)-benzimidazol-1-yl]-phenyl}-urea], the GI50 in test [1] was above 1000 nM; in test [2], above 2500 nM; in test [3], above 2500 nM.

(Values after patent US10647680B2, “Urea compound, preparation method therefor and medical use thereof” (Ancureall Pharmaceutical (Shanghai) Co., Ltd., priority 2016, dated 2020).)
